# Reference: patent US9072734B2, “Quaternary ammonium salt compounds” (Teijin Pharma Limited, priority 2009, dated 2015)
# Where a name gives a salt, the structure may show the parent alone.
# Assays:
# [1] = molecular target: T1, human M3 muscarinic receptor (Homo sapiens, UniProt P20309); assay: Inhibitory effect on methacholine-induced calcium influx, FLIPR assay, CHO-K1 cells stably expressing the human M3 muscarinic receptor; assay type: cell-based; settings: inhibition of calcium influx induced by methacholine
# T1 construct: expressed in transfected cells; host or cells: CHO-K1
# In short: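 Dye-loaded hM3 CHO-K1 cells were preincubated 180 s with compound solutions prepared at 10 two-fold concentrations (0.01–1000 nM). A 30 nM methacholine solution was then added. Fluorescence was traced for 170 s; max−min signal gave % inhibition against agonist and no-agonist controls, and IC50 came from a four-parameter logistic fit.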
# [2] = molecular target: T2, human β2 adrenergic receptor (Homo sapiens, UniProt P07550); assay: Whole-cell cAMP Flashplate assay using CHO-K1 cells stably expressing human β2 adrenergic receptor; assay type: cell-based; settings: cAMP production
# T2 construct: expressed in transfected cells; host or cells: CHO-K1
# T2 sequence (P07550 whole entry): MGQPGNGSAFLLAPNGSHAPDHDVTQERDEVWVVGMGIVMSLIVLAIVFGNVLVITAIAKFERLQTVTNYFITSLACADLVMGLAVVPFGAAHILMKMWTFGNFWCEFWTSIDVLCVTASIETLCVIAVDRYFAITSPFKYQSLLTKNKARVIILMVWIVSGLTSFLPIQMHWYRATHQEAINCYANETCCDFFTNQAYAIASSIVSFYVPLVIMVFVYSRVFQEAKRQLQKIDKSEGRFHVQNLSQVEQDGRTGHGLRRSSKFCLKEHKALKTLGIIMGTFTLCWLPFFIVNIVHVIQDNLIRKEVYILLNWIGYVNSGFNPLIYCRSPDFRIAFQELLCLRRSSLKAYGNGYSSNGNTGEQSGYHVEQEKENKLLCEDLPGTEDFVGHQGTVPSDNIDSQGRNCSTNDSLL
# T1 sequence (P20309 whole entry): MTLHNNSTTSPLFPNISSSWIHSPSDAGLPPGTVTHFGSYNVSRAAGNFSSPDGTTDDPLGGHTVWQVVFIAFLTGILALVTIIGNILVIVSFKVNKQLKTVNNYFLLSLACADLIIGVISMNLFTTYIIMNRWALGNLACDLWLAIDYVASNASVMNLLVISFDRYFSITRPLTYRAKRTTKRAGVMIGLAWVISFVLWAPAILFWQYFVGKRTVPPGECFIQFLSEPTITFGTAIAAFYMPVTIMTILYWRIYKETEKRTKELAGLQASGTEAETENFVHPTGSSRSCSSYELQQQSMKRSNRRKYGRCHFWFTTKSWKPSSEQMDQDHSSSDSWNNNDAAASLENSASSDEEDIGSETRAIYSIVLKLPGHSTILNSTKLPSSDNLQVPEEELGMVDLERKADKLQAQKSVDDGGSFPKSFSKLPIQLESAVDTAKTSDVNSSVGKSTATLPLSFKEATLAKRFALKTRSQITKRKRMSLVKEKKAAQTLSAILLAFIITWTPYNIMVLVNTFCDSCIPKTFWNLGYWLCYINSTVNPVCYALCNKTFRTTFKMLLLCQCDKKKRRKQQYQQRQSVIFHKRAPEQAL
SMILES,IC50 [1],EC50 [2]
"C[N+]1(C)[C@@H]2C[C@@H](OC(=O)Nc3cc(CCCC(=O)Nc4ccc(CNC[C@H](O)c5ccc(O)c6[nH]c(=O)ccc56)cc4)ccc3-c3ccccc3)C[C@H]1[C@@H]1O[C@@H]12 [Example 33, (1R,2R,4S,5S,7S)-7-({[5-(3-{[4-({[(2R)-2-hydroxy-2-(8-hydroxy-2-oxo-1,2-dihydroquinolin-5-yl)ethyl]amino}methyl)phenyl]carbamoyl}propyl)-2-phenylphenyl]carbamoyl}oxy)-9,9-dimethyl-3-oxa-9-azatricyclo[3.3.1.0^2,4]nonan-9-ium trifluoroacetate]",22.1 nM,4.6 nM
"Cc1cc(CNC[C@H](O)c2ccc(O)c3[nH]c(=O)ccc23)ccc1NC(=O)CCc1ccc(-c2ccccc2)c(NC(=O)OC2CC[N+](C)(C)CC2)c1 [Example 11, 4-({[5-(2-{[4-({[(2R)-2-hydroxy-2-(8-hydroxy-2-oxo-1,2-dihydroquinolin-5-yl)ethyl]amino}methyl)-2-methylphenyl]carbamoyl}ethyl)-2-phenylphenyl]carbamoyl}oxy)-1,1-dimethylpiperidin-1-ium trifluoroacetate]",9.7 nM,3.7 nM
"C[N+]1(C)CCC(OC(=O)Nc2cc(CCC(=O)Nc3ccc(CNC[C@H](O)c4ccc(O)c5[nH]c(=O)ccc45)c(F)c3)ccc2-c2ccccc2)CC1 [Example 7, 4-({[5-(2-{[3-fluoro-4-({[(2R)-2-hydroxy-2-(8-hydroxy-2-oxo-1,2-dihydroquinolin-5-yl)ethyl]amino}methyl)phenyl]carbamoyl}ethyl)-2-phenylphenyl]carbamoyl}oxy)-1,1-dimethylpiperidin-1-ium trifluoro acetate]",14.5 nM,5.1 nM

# Continued, values first:
IC50 [1],EC50 [2],SMILES
27.6 nM,1.7 nM,"C[N+]1(C)[C@@H]2CC(OC(=O)Nc3cc(CCCCC(=O)Nc4ccc(CNC[C@H](O)c5ccc(O)c6[nH]c(=O)ccc56)cc4)ccc3-c3ccccc3)C[C@H]1[C@@H]1O[C@@H]12 (stereo partly drawn) [Example 50, (1R,2R,4S,5S,7S)-7-({[5-(4-{[4-({[(2R)-2-hydroxy-2-(8-hydroxy-2-oxo-1,2-dihydroquinolin-5-yl)ethyl]amino}methyl)phenyl]carbamoyl}butyl)-2-phenylphenyl]carbamoyl}oxy)-9,9-dimethyl-3-oxa-9-azatricyclo[3.3.1.0^2,4]nonan-9-ium trifluoroacetate]"
12.3 nM,0.8 nM,"COc1cc(NC(=O)CCc2ccc(-c3ccccc3)c(NC(=O)O[C@@H]3C[C@@H]4[C@H]5O[C@H]5[C@H](C3)[N+]4(C)C)c2)ccc1CNC[C@H](O)c1ccc(O)c2[nH]c(=O)ccc12 [Example 42, (1R,2R,4S,5S,7S)-7-({[5-(2-{[4-({[(2R)-2-hydroxy-2-(8-hydroxy-2-oxo-1,2-dihydroquinolin-5-yl)ethyl]amino}methyl)-3-methoxyphenyl]carbamoyl}ethyl)-2-phenylphenyl]carbamoyl}oxy)-9,9-dimethyl-3-oxa-9-azatricyclo[3.3.1.0^2,4]nonan-9-ium trifluoroacetate]"
41.7 nM,5.6 nM,"C[N+]1(C)CCC(OC(=O)Nc2cc(CCC(=O)Nc3ccc(CCNC[C@H](O)c4ccc(O)c5[nH]c(=O)ccc45)cc3)ccc2-c2ccccc2)CC1 [Example 63, 4-({[5-(2-{[4-(2-{[(2R)-2-hydroxy-2-(8-hydroxy-2-oxo-1,2-dihydroquinolin-5-yl)ethyl]amino}ethyl)phenyl]carbamoyl}ethyl)-2-phenylphenyl]carbamoyl}oxy)-1,1-dimethylpiperidin-1-ium trifluoroacetate]"
13.9 nM,2.3 nM,"C[N+]1(C)CCC(OC(=O)Nc2cc(CCCCC(=O)Nc3ccc(CNC[C@H](O)c4ccc(O)c5[nH]c(=O)ccc45)cc3)ccc2-c2ccccc2)CC1 [Example 49, 4-({[5-(4-{[4-({[(2R)-2-hydroxy-2-(8-hydroxy-2-oxo-1,2-dihydroquinolin-5-yl)ethyl]amino}methyl)phenyl]carbamoyl}butyl)-2-phenylphenyl]carbamoyl}oxy)-1,1-dimethylpiperidin-1-ium trifluoroacetate]"
